{
  "source": "patent US10920198B2",
  "about": "“Delta133p53beta and delta133p53gamma isoforms are biomarkers of cancer stem cells” (Centre National de la Recherche Scientifique (CNRS), priority 2015, dated 2021)",
  "type_in_all_cases": "cell-based, human",
  "key": {"MCF-7 cells": {"tested_on": "MCF-7 cells", "experiment": "Mammosphere formation in MCF-7 cells", "settings": "50 ng/ml/day for 7 days", "method": "For mammosphere formation, 1000 cells/ml (500 cells/well) were plated in Ultra Low Cluster Plate, 24-well, Flat Bottom (Corning Inc) with MammoCult™ Medium enriched with MammoCult™ Proliferation Supplements, hydrocortisone and heparin (Stem Cell Technologies) and cultured for 15 days. For all mammosphere assays, at least three independent experiments for each condition were carried out and repeated 8-12 times. For self-renewal experiments, transfected cells were subjected to a first cycle of mammosphere formation. Upon 15 days of culture the created mammospheres were dissociated and cells were re-plated in identical conditions as for the first plating."}, "[1]": {"tested_on": "c-Myc, Sox 2, Oct 3/4 and Nanog", "experiment": "Expression of pluripotency/reprogramming factors in MCF-7 cells (RT-qPCR, western blot)", "description": "(§1) The following antibodies were used for immunoblotting: anti-c-Myc (9E10 mouse hybridoma clone), -Nanog (sc-81961, Santa Cruz Biotechnology), -Oct 3/4 (sc-8630, Santa Cruz Biotechnology), -Sox 2 (sc-17320, Santa Cruz Biotechnology), -p53 (DO-1; sc-126 Santa Cruz Biotechnology), -p53 Sapu (Vojtesek et al. 1995), -α-tubulin (clone DM1A, Sigma-Aldrich), -β-actin (clone AC-74 Sigma-Aldrich), -p21 (sc-397 Santa Cruz Biotechnology) and -Flag (clone M2; Sigma-Aldrich). Secondary HRP-conjugated antibodies were from GE Healthcare. For luminescence quantification, cells were serially diluted and incubated with 0.5 mM D-luciferin (Sigma). Luminescence was quantified with a Polarstar Omega instrument (BMG LABTECH).\n(§2) Total RNA was extracted (Qiagen) and reverse transcription (RT) was performed with 1-5 μg of total RNA using the SuperScript® III Reverse Transcriptase (Life Technologies) at 50° C. Levels of different mRNAs were quantified by real-time qPCR on a LightCycler480 apparatus (Roche). Briefly, 20 ng cDNA was amplified using 0.168 μM of each primer, 0.2 μM of probe (Table 4) and 1× LightCycler® 480 Probes Master Mix (Roche) for the p53 isoforms, or commercially available primers (Qiagen) and 1× LightCycler® 480 Sybr Green Master Mix (Roche) for the other genes. Data were normalized to the internal standard TBP. The different primers used and their corresponding sequences have been previously described (Bourdon et al., 2005). For each single-well amplification reaction, a threshold cycle (Ct) was calculated by using the LightCycler480 program (Roche) in the exponential phase of amplification. Relative changes in gene expression were determined using the 2ΔΔCt method and reported relative to a control. All quantification studies were performed with at least three independent experiments, repeated twice, for each condition. Data are presented as the arithmetic mean±SEM."}, "[2]": {"tested_on": "Δ133p53 (α, β and γ) isoforms", "experiment": "Expression of Δ133p53 isoforms in MCF-7 cells (RT-qPCR, western blot)", "settings": "MCF-7, etoposide treatment; RT-qPCR and western blot", "description": "as §1\nTotal RNA was extracted (Qiagen) and reverse transcription (RT) was performed with 1-5 μg of total RNA using the SuperScript® III Reverse Transcriptase (Life Technologies) at 50° C. Levels of different mRNAs were quantified by real-time qPCR on a LightCycler480 apparatus (Roche). […] For each single-well amplification reaction, a threshold cycle (Ct) was calculated by using the LightCycler480 program (Roche) in the exponential phase of amplification. Relative changes in gene expression were determined using the 2ΔΔCt method and reported relative to a control. All quantification studies were performed with at least three independent experiments, repeated twice, for each condition. […]"}, "p53, p21 [3]": {"tested_on": "p53, p21", "experiment": "Western blot of p53 and p21 in MCF-7 cells after etoposide", "settings": "MCF-7, increasing concentrations of etoposide, 16 hours", "method": "(§3) The human breast cancer cell lines MCF-7, MDA-MB 231 […] and […] were grown in MEM supplemented with 10% FCS, sodium pyruvate and glutamine. Following viral infection, cells were used after 24-48 h or subjected to selection with 2 μg/ml puromycin (InvivoGen) or 300 μg/ml hygromycin B (Invitrogen) for two days. Etoposide treatment was performed with final doses of 12.5, 25 and 50 ng/ml for 16 h or 50 ng/ml/day for 7 days. […] Secondary HRP-conjugated antibodies were from GE Healthcare. For luminescence quantification, cells were serially diluted and incubated with 0.5 mM D-luciferin (Sigma). Luminescence was quantified with a Polarstar Omega instrument (BMG LABTECH)."}, "[4]": {"tested_on": "c-Myc, Oct 3/4, Nanog and Sox 2", "experiment": "Expression of pluripotency/reprogramming factors in MDA-MB-231 D3H2LN cells (RT-qPCR, western blot)", "settings": "MDA-MB-231 D3H2LN", "method": "(§4) The human breast cancer cell lines MCF-7, MDA-MB 231 D3H2LN and C3LND were grown in MEM supplemented with 10% FCS, sodium pyruvate and glutamine. Following viral infection, cells were used after 24-48 h or subjected to selection with 2 μg/ml puromycin (InvivoGen) or 300 μg/ml hygromycin B (Invitrogen) for two days. Etoposide treatment was performed with final doses of 12.5, 25 and 50 ng/ml for 16 h or 50 ng/ml/day for 7 days.\nas §1, §2"}, "[5]": {"tested_on": "Δ133p53 (α, β and γ) isoforms", "experiment": "Expression of Δ133p53 isoforms in MDA-MB-231 D3H2LN cells after etoposide", "settings": "not dose-dependent", "method": "as §4, with “D3H2LN” left out, “C3LND” left out"}, "p53, p21 [6]": {"tested_on": "p53, p21", "experiment": "Western blot of p53 and p21 in MDA-MB-231 D3H2LN cells after etoposide", "settings": "MDA-MB-231 D3H2LN (p53 R280K), increasing concentrations of etoposide", "method": "as §3"}},
  "data": [
    {"smiles": "COc1cc([C@@H]2c3cc4c(cc3[C@@H](O[C@@H]3O[C@@H]5CO[C@@H](C)O[C@H]5[C@H](O)[C@H]3O)[C@H]3COC(=O)[C@H]23)OCO4)cc(OC)c1O", "note": "[etoposide, reference compound]", "values": [
      {"measurement": "mammosphere formation", "setting": "MCF-7 cells; Sh2-transduced MCF-7 cells", "result": "did not have any significant effect"},
      {"measurement": "mammosphere formation", "setting": "MCF-7 cells; control MCF-7 cells (active TAp53)", "result": "significantly reduced"},
      {"measurement": "c-Myc expression", "setting": "[1]; MCF-7, increasing concentrations of etoposide, western blot and RT-qPCR", "result": "reduced"},
      {"measurement": "Oct 3/4, Nanog and Sox 2 expression", "setting": "[1]; MCF-7, increasing doses of etoposide, RT-qPCR", "result": "strongly up-regulated in a dose-dependent manner"},
      {"measurement": "Δ133p53 isoforms expression", "setting": "[2]", "result": "strongly up-regulated in a dose-dependent manner"},
      {"measurement": "TAp53α level", "setting": "p53, p21 [3]", "result": "stabilization"},
      {"measurement": "p21 expression", "setting": "p53, p21 [3]", "result": "increased"},
      {"measurement": "c-Myc expression", "setting": "[4]; increasing concentrations of etoposide", "result": "significantly down-regulated"},
      {"measurement": "expression of Nanog, Sox 2 and Oct 3/4", "setting": "[4]; incubation with etoposide", "result": "up-regulated"},
      {"measurement": "expression of Δ133p53 isoforms", "setting": "[5]", "result": "up-regulated"},
      {"measurement": "TAp53 expression", "setting": "p53, p21 [6]", "result": "did not affect"},
      {"measurement": "p21 expression", "setting": "p53, p21 [6]", "result": "only weakly increased"}
    ]}
  ]
}
